Results: PMC4955774 (Bioorganic & medicinal chemistry, 2016)
In brackets after ≈: the same amount, converted by molar mass. Marks after values point to notes of the source that are not given here.

Assays:
C. albicans ATCC 10231 [1] = experiment: In vitro antifungal MIC assay, strain A; format: cell-based; conditions: Candida albicans, ATCC10231, read-out: MIC (MIC-0)
[2] = tested on: 13 fungal strains (yeast and filamentous fungi); experiment: In vitro antifungal MIC assay, summary over the whole panel; format: cell-based, Candida and Aspergillus strains; conditions: summary statement over the 13 strains
[3] = tested on: C. albicans ATCC MYA-2876(S); experiment: In vitro antifungal MIC assay, strain C; format: cell-based; conditions: Candida albicans, read-out: MIC (MIC-0)
[4] = tested on: C. albicans ATCC MYA-2310(S); experiment: In vitro antifungal MIC assay, strain E; format: cell-based; conditions: Candida albicans, read-out: MIC (MIC-0)
[5] = tested on: C. albicans ATCC MYA-1237(R); experiment: In vitro antifungal MIC assay, strain F; format: cell-based; conditions: Candida albicans, read-out: MIC (MIC-0)
[6] = tested on: C. albicans ATCC MYA-1003(R); experiment: In vitro antifungal MIC assay, strain G; format: cell-based; conditions: Candida albicans, read-out: MIC (MIC-0)
[7] = tested on: C. albicans ATCC 64124 (strain B); experiment: Antifungal time-kill studies; format: cell-based, Candida albicans
[8] = In vitro cytotoxicity assay, A549; format: cell-based, mammalian; conditions: human
[9] = In vitro cytotoxicity assay, BEAS-2B; format: cell-based, mammalian; conditions: human
[10] = tested on: C. albicans ATCC 10231 (strain A); experiment: ROS assay with DCFH-DA dye; format: cell-based, Candida albicans; conditions: 1 h at 35 °C
C. albicans ATCC 10231 [11] = conditions: strain A; MIC-2 for azoles; previously reported; cited from earlier work
C. albicans ATCC 64124 = conditions: strain B; MIC-2 for azoles; previously reported; cited from earlier work
[12] = tested on: C. albicans ATCC MYA-2876(S); conditions: strain C; MIC-2 for azoles; previously reported; cited from earlier work
[13] = tested on: C. albicans ATCC 90819(R); conditions: strain D; MIC-2 for azoles; previously reported; cited from earlier work
[14] = tested on: C. albicans ATCC MYA-2310(S); conditions: strain E; MIC-2 for azoles; previously reported; cited from earlier work
[15] = tested on: C. albicans ATCC MYA-1237(R); conditions: strain F; MIC-2 for azoles; previously reported; cited from earlier work
[16] = tested on: C. albicans ATCC MYA-1003(R); conditions: strain G; MIC-2 for azoles; previously reported; cited from earlier work
[17] = tested on: Aspergillus nidulans ATCC 38163; conditions: strain L, filamentous fungus, previously reported; cited from earlier work
[18] = 1× and 2× respective MIC values

C#CCOc1ccc(-c2nc3ccc(-c4nc5ccc(N6CCN(C)CC6)cc5[nH]4)cc3[nH]2)cc1 [Compound 14]
MIC (C. albicans ATCC 10231 [1]): 7.8 to 31.2 µg/mL (≈ 16.9 to 67.5 µM)

CCCCCN1CCN(c2ccc3nc(-c4ccc5nc(-c6ccc(OCC)cc6)[nH]c5c4)[nH]c3c2)CC1 [Compound 12]
MIC / antifungal activity over all tested fungal strains [2]: inactive

CN1CCN(c2ccc3[nH]c(-c4ccc5[nH]c(-c6ccc(O)cc6)nc5c4)nc3c2)CC1 [Compound 2]
MIC (C. albicans ATCC 10231 [1]): 7.8 to 15.6 µg/mL (≈ 18.4 to 36.7 µM)
MIC [3]: 7.8 to 15.6 µg/mL (≈ 18.4 to 36.7 µM)
MIC [4]: 3.9 to 7.8 µg/mL (≈ 9.19 to 18.4 µM)
MIC [5]: 3.9 to 7.8 µg/mL (≈ 9.19 to 18.4 µM)
MIC [6]: 7.8 to 15.6 µg/mL (≈ 18.4 to 36.7 µM)
Nature of activity in time-kill assay ([7]; 1× MIC): fungistatic
Nature of activity in time-kill assay ([7]; 2× MIC): fungicidal
IC50 at 24 h [8]: ≥ 31.2 µg/mL
IC50 at 24 h [9]: ≥ 31.2 µg/mL
Intracellular ROS production [10, 18]: significant amount of ROS production

CCCN1CCN(c2ccc3nc(-c4ccc5nc(-c6ccc(OCC)cc6)[nH]c5c4)[nH]c3c2)CC1 [Compound 11]
MIC / antifungal activity over all tested fungal strains [2]: inactive

OC(Cn1cncn1)(Cn1cncn1)c1ccc(F)cc1F [FLC, fluconazole]
MIC (MIC-2) (C. albicans ATCC 10231 [11]): 62.5 ^a µg/mL
MIC (MIC-2) (C. albicans ATCC 64124): >125 ^a µg/mL
MIC (MIC-2) [12]: 15.6 ^a µg/mL
MIC (MIC-2) [13]: >125 ^a µg/mL
MIC (MIC-2) [14]: >125 ^a µg/mL
MIC (MIC-2) [15]: 62.5 ^a µg/mL
MIC (MIC-2) [16]: 62.5 ^a µg/mL
MIC (MIC-0) [17]: 62.5 ^a µg/mL

C#CCOc1ccc(-c2nc3ccc(N4CCN(C)CC4)cc3[nH]2)cc1 [Compound 1]
MIC / antifungal activity over all tested fungal strains [2]: ≥ 31.2 µg/mL

CCCCCCCCCCCCN1CCN(c2ccc3nc(-c4ccc5nc(-c6ccc(O)cc6)[nH]c5c4)[nH]c3c2)CC1 [Compound 4]
MIC / antifungal activity over all tested fungal strains [2]: no activity
Intracellular ROS production ([10]; 8 and 16 µg/mL): no ROS accumulation

CC[C@@H]([C@H](C)O)n1ncn(-c2ccc(N3CCN(c4ccc(OC[C@@H]5CO[C@@](Cn6cncn6)(c6ccc(F)cc6F)C5)cc4)CC3)cc2)c1=O [POS, posaconazole]
MIC (MIC-2) (C. albicans ATCC 10231 [11]): 0.5 ^a µg/mL
MIC (MIC-2) (C. albicans ATCC 64124): >62.5 ^a µg/mL
MIC (MIC-2) [12]: 7.8 ^a µg/mL
MIC (MIC-2) [13]: 31.2 ^a µg/mL
MIC (MIC-2) [14]: 31.2 ^a µg/mL
MIC (MIC-2) [15]: 15.6 ^a µg/mL
MIC (MIC-2) [16]: 15.6 ^a µg/mL
MIC (MIC-0) [17]: 0.195 ^a µg/mL

CCC(C)n1ncn(-c2ccc(N3CCN(c4ccc(OCC5COC(Cn6cncn6)(c6ccc(Cl)cc6Cl)O5)cc4)CC3)cc2)c1=O (centres unmarked) [ITC, itraconazole]
MIC (MIC-2) (C. albicans ATCC 10231 [11]): 0.5 ^a µg/mL
MIC (MIC-2) (C. albicans ATCC 64124): >62.5 ^a µg/mL
MIC (MIC-2) [12]: 7.8 ^a µg/mL
MIC (MIC-2) [13]: 31.2 ^a µg/mL
MIC (MIC-2) [14]: 31.2 ^a µg/mL
MIC (MIC-2) [15]: 31.2 ^a µg/mL
MIC (MIC-2) [16]: 31.2 ^a µg/mL
MIC (MIC-0) [17]: 0.195 ^a µg/mL

C[C@@H]1[C@H](O)[C@@H](C)/C=C/C=C/C=C/C=C/C=C/C=C/C=C/[C@H](O[C@@H]2O[C@H](C)[C@@H](O)[C@H](N)[C@@H]2O)C[C@@H]2O[C@](O)(C[C@@H](O)C[C@@H](O)[C@H](O)CC[C@@H](O)C[C@@H](O)CC(=O)O[C@H]1C)C[C@H](O)[C@H]2C(=O)O [AmB, amphotericin B]
Nature of activity in time-kill assay ([7]; 1× MIC): fungicidal
Time after which fungal cells were completely killed ([7]; 1× MIC): 9 h

CCOc1ccc(-c2nc3cc(-c4nc5cc(N6CCN(C)CC6)ccc5[nH]4)ccc3[nH]2)cc1 [Compound 9]
Nature of activity in time-kill assay ([7]; 1× MIC): fungistatic
Nature of activity in time-kill assay ([7]; 2× MIC): fungicidal
Intracellular ROS production [10, 18]: significant amount of ROS production

C#CCOc1ccc(-c2nc3ccc(-c4nc5ccc(-c6nc7ccc(N8CCN(C)CC8)cc7[nH]6)cc5[nH]4)cc3[nH]2)cc1 [Compound 18]
MIC / antifungal activity over all tested fungal strains [2]: ≥ 31.2 µg/mL

CCCCCCCCCCCCOc1ccc(-c2nc3ccc(-c4nc5ccc(N6CCN(C)CC6)cc5[nH]4)cc3[nH]2)cc1 [Compound 13]
MIC / antifungal activity over all tested fungal strains [2]: complete loss of antifungal activity
